Source: article PMC4823272 (Frontiers in Microbiology, 2016)

Key:
[1] = tested on: IFV (H1N1, A/Puerto Rico/8/34); assay: rRT-PCR quantification of IFV captured on membranes; format: binding, influenza virus A/Puerto Rico/8/34 (H1N1); conditions: 1600 pfu incubated 1 h at 25°C; plastic plates; estimated from rRT-PCR standard curve (M gene, R^2 0.954)
Experimental: The pep-PE/DOPC (50:50) lipid monolayer was attached horizontally to plastic plates as described above. […] After washing with PBS, plates were incubated with AVL viral lysis buffer (QIAamp Viral RNA Mini Kit, QIAGEN) for 10 min. Viral RNA was extracted according to the manufacturer's instructions.
One-step RT-PCR was performed using QuantiTect SYBR Green PCR Kit (QIAGEN) with forward and reverse primers for the sequences of the matrix protein (M) gene for 244 bp (forward M30F2/08: 5′-[…] -3′; reverse M264R3/08: 5′-[…] -3′; Eisfeld et al., [2014]). The reaction was performed using a PikoReal Real-Time PCR system (TCR0096, Thermo Scientific). PCR was set up in a 10-μL reaction volume containing 5 μL of 2 × QuantiTect SYBR Green RT-PCR master mix, 0.1 μL of QuantiTect RT Mix, 0.5 μL of RNA template, 1 μL of forward and reverse primers (10 μM each), and 3.4 μL of RNase free water. […] Fluorescence was measured at the end of each cycle. […] A melting curve analysis consisted of 60°C for 30 s, and followed by a temperature increase to 95°C for 10 s with the continuous reading of fluorescence. The amplified products were analyzed by agarose gel electrophoresis (2.5% agarose) and detected by staining with ethidium bromide (Supplementary Figure 3A). […]

IFV = conditions: ref Matsubara et al., [2010]; cited from earlier work
Source text: The first step in the infection of cells by IFV is the binding of HA to sialic acid-containing glycoconjugates (Skehel and Wiley, [2000]). Human HA strains preferentially bind to the terminal sialylgalactose structure (Neu5Acα2−6Gal), whereas avian and equine strains bind to the corresponding Neu5Acα2−3Gal (Suzuki, [2005]).

HA = conditions: cited from earlier work

## CCCCCCCC/C=C\CCCCCCCC(=O)OC[C@H](COP(=O)([O-])OCC[N+](C)(C)C)OC(=O)CCCCCCC/C=C\CCCCCCCC [DOPC, Dioleoylphosphatidylcholine]
[1]
  amount of virus captured on the membrane: 100 pfu

## Ala-Arg-Leu-Pro-Arg
IFV
  inhibition of IFV infection in cells: exerts the inhibitory effects on IFV infection in cells
HA; ref Matsubara et al., [2010]
  binding to receptor-binding site of HA: binds to the receptor-binding site of HA by mimicking sialic acid

## Neu5Acα2–3Galβ1–4Glcβ1–1′Cer [GM3]
HA; ref Suzuki et al., [1986], Sato et al., [1996]
  HA binding to GM3: HA binds to GM3 through the sialyllactose structure
